Data on eleven compounds can be found in patent US20140206702A1, “IMIDAZOPYRIDINE COMPOUNDS, COMPOSITIONS AND METHODS OF USE” (Genentech, Inc., priority 2012, published 2014).

The first assay addresses T1, TYK2 kinase domain (Homo sapiens, UniProt P29597).
T1 construct: The activity of the isolated JAK1, JAK2 or TYK2 kinase domain was measured
T1 sequence (P29597 897-1176 limits assumed): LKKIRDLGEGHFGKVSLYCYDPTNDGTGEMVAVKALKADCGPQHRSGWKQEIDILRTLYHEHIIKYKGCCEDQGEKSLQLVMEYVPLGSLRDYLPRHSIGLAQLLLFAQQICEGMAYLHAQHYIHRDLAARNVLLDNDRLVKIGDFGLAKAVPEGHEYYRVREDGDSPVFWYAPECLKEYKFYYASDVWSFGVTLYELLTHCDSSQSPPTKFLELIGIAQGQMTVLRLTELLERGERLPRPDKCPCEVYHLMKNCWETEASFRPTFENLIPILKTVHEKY
The assay is described as follows: JAK1, JAK2 and TYK2 Inhibition Assay Protocol (Caliper LabChip, isolated kinase domain). Format: biochemical. As to conditions: 1 nM purified TYK2 enzyme, 25 uM ATP, Morrison tight binding model; read-out: Ki values for TYK2 inhibition. How it is done:
The activity of the isolated JAK1, JAK2 or TYK2 kinase domain was measured by monitoring phosphorylation of a peptide derived from JAK3 (Val-Ala-Leu-Val-Asp-Gly-Tyr-Phe-Arg-Leu-Thr-Thr) fluorescently labeled on the N-terminus with 5-carboxyfluorescein using the Caliper LabChip technology (Caliper Life Sciences, Hopkinton, Mass.). To determine the inhibition constants (Ki) of Examples 1-11, compounds were diluted serially in DMSO and added to 50 uL kinase reactions containing 1.5 nM JAK1, 0.2 nM purified JAK2 or 1 nM purified TYK2 enzyme, 100 mM Hepes pH7.2, 0.015% Brij-35, 1.5 uM peptide substrate, 25 uM ATP, 10 mM MgCl2, 4 mM DTT at a final DMSO concentration of 2%. Reactions were incubated at 22° C. in 384-well polypropylene microtiter plates for 30 minutes and then stopped by addition of 25 uL of an EDTA containing solution (100 mM Hepes pH 7.2, 0.015% Brij-35, 150 mM EDTA), resulting in a final EDTA concentration of 50 mM. After termination of the kinase reaction, the proportion of phosphorylated product was determined as a fraction of total peptide substrate using the Caliper LabChip 3000 according to the manufacturer's specifications. Ki values were then determined using the Morrison tight binding model. Morrison, J. F., Biochim. Biophys. Acta. 185:269-296 (1969); William, J. W. and Morrison, J. F., Meth. Enzymol., 63:437-467 (1979).
What is called Ki is a dissociation constant, usually derived from enzyme kinetics or from competition with a known ligand. Turning to `N#Cc1cccc(F)c1-c1nc2ccnc(Nc3cc(N)ncn3)c2[nH]1` [Example 1, 2-(4-(6-aminopyrimidin-4-ylamino)-3H-imidazo[4,5-c]pyridin-2-yl)-3-fluorobenzonitrile], the inhibitory constant (Ki) was determined as 0.4 nM.

Regarding `Cc1cc(Nc2nccc3nc(-c4c(C#N)cccc4C#N)[nH]c23)ncn1` [Example 7, 2-(4-(6-methylpyrimidin-4-ylamino)-3H-imidazo[4,5-c]pyridine-2-yl)isophthalonitrile], the Ki was determined as 2.7 nM.

Turning to `N#Cc1cccc(F)c1-c1nc2ccnc(NC(=O)C3CC3)c2[nH]1` [Example 11, N-(2-(2-cyano-6-fluorophenyl)-3H-imidazo[4,5-c]pyridin-4-yl)cyclopropanecarboxamide], the Ki stood at 6 nM.

The same assay, now with this note: Table 1; 1 nM purified TYK2 enzyme, 25 uM ATP, Morrison tight binding model; read-out: TYK2 Ki.
`N#Cc1cccc(Cl)c1-c1nc2ccnc(Nc3cc(N)ncn3)c2[nH]1` [Example 2, 2-(4-(6-aminopyrimidin-4-ylamino)-3H-imidazo[4,5-c]pyridine-2-yl)-3-chlorobenzonitrile]: the Ki worked out at 0.4 nM.

For the compound `Cc1cc(Nc2nccc3nc(-c4c(Cl)cccc4C#N)[nH]c23)ncn1` [Example 3, 3-chloro-2-(4-(6-methylpyrimidin-4-ylamino)-3H-imidazo[4,5-c]pyridine-2-yl)benzonitrile], the Ki came out at 0.8 nM.

Consider `Cc1cc(Nc2nccc3nc(-c4c(F)cccc4C#N)[nH]c23)ncn1` [Example 4, 3-fluoro-2-(4-(6-methylpyrimidin-4-ylamino)-3H-imidazo[4,5-c]pyridine-2-yl)benzonitrile], for which the Ki is 1 nM.

As for `N#Cc1cccc(Cl)c1-c1nc2ccnc(Nc3cc(CO)ncn3)c2[nH]1` [Example 5, 3-chloro-2-(4-(6-(hydroxymethyl)pyrimidin-4-ylamino)-3H-imidazo[4,5-c]pyridin-2-yl)benzonitrile], the Ki turned out to be 0.8 nM.

For the compound `CNc1cc(Nc2nccc3nc(-c4c(Cl)cccc4C#N)[nH]c23)ncn1` [Example 6, 3-chloro-2-(4-(6-(methylamino)pyrimidin-4-ylamino)-3H-imidazo[4,5-c]pyridin-2-yl)benzonitrile], the Ki is 0.6 nM.

On to `CNc1cc(Nc2nccc3nc(-c4c(F)cccc4C#N)[nH]c23)ncn1` [Example 8, 3-fluoro-2-(4-(6-(methylamino)pyrimidin-4-ylamino)-3H-imidazo[4,5-c]pyridin-2-yl)benzonitrile], for which the inhibition constant (Ki) was determined as 0.7 nM.

Turning to `N#Cc1cccc(F)c1-c1nc2ccnc(Nc3cc(CO)ncn3)c2[nH]1` [Example 9, 3-fluoro-2-(4-(6-(hydroxymethyl)pyrimidin-4-ylamino)-3H-imidazo[4,5-c]pyridin-2-yl)benzonitrile], the Ki was determined as 2 nM.

As to `N#Cc1cccc(Cl)c1-c1nc2ccnc(NC(=O)C3CC3)c2[nH]1` [Example 10, N-(2-(2-chloro-6-cyanophenyl)-3H-imidazo[4,5-c]pyridin-4-yl)cyclopropanecarboxamide], the Ki was found to be 1.3 nM.
